Results published in PubChem BioAssay AID248 (DTP/NCI, 2004).
Toxic doses and inconclusive results are not listed. Rule as the data show it: active = T/C of 150% or more; inactive = T/C below 125%.

Test system: L1210 leukemia ip in BDF1 mice, survival T/C
Test: NCI In Vivo Anticancer Drug Screen. Data for tumor model L1210 Leukemia (intraperitoneal) in B6D2F1 (BDF1) mice
Conditions: endpoint: mean survival time, higher = longer survival
How it was run: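 In this screen, tumor-bearing mice given compound are compared to those given vehicle, and their survival values are reported as a treated-to-control quotient.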

[1] = dose: 100.0 mg/kg/injection, schedule: Q01DX009 (ip), vehicle: Klucel (hydroxypropylcellulose) (HPC)
[2] = dose: 200.0 mg/kg/injection, schedule: Q01DX009 (ip), vehicle: Klucel (hydroxypropylcellulose) (HPC)
[3] = dose: 400.0 mg/kg/injection, schedule: Q01DX009 (ip), vehicle: Klucel (hydroxypropylcellulose) (HPC)
[4] = dose: 100.0 mg/kg/injection, schedule: Q04DX002 (ip), vehicle: Klucel (hydroxypropylcellulose) (HPC)
[5] = dose: 100.0 mg/kg/injection, schedule: Q04DX003 (ip), vehicle: saline with Tween-80
[6] = dose: 200.0 mg/kg/injection, schedule: Q04DX002 (ip), vehicle: Klucel (hydroxypropylcellulose) (HPC)
[7] = dose: 200.0 mg/kg/injection, schedule: Q04DX003 (ip), vehicle: saline with Tween-80
[8] = dose: 400.0 mg/kg/injection, schedule: Q04DX002 (ip), vehicle: Klucel (hydroxypropylcellulose) (HPC)
[9] = dose: 400.0 mg/kg/injection, schedule: Q04DX003 (ip), vehicle: saline with Tween-80

Measured: T/C

CCCCCCS(=O)(=O)c1n[nH]c(=O)[nH]c1=O
inactive: dose: 100.0 mg/kg/injection, schedule: Q01DX001 (ip), vehicle: other 98 % of control | dose: 200.0 mg/kg/injection, schedule: Q01DX001 (ip), vehicle: other 95 % of control | dose: 400.0 mg/kg/injection, schedule: Q01DX001 (ip), vehicle: other 101 % of control

CCCCOC(=O)c1ccc(NC(=O)Nc2cc(Cl)ccc2OC)cc1
inactive: [1] 98 % of control | [2] 98 % of control | [3] 90 % of control

CCN(CC)C(=O)c1ccc(COc2cc(Cl)cc(Cl)c2)cc1
inactive: [1] 94 % of control | [2] 97 % of control | [3] 96 % of control

CN1C(=O)CC(/C=C\[N+](=O)[O-])c2ccccc21 (configuration not stated)
inactive: dose: 100.0 mg/kg/injection, schedule: Q01DX001 (ip), vehicle: carboxymethylcellulose (CMC) 94 % of control | dose: 400.0 mg/kg/injection, schedule: Q01DX001 (ip), vehicle: carboxymethylcellulose (CMC) 104 % of control

C(=C\SCc1ccccc1)/SCc1ccccc1
inactive: [4] 103 % of control | [5] 97 % of control | [6] 103 % of control | [7] 101 % of control | [8] 96 % of control | [9] 102 % of control

Clc1ccnc2[nH]ncc12
inactive: dose: 60.0 mg/kg/injection, schedule: Q01DX001 (ip), vehicle: other 97 % of control | dose: 120.0 mg/kg/injection, schedule: Q01DX001 (ip), vehicle: other 105 % of control

Cc1ccc(C(C)(CCC(=O)O)c2ccc(C)o2)o1
inactive: [5] 96 % of control | [7] 96 % of control | [9] 95 % of control

O=C(O)/C=C/C(=O)Nc1ccc(I)cc1
inactive: dose: 50.0 mg/kg/injection, schedule: Q04DX003 (ip), vehicle: saline with Tween-80 104 % of control | [5] 104 % of control | [7] 104 % of control

Cc1ccc(C(=O)N/N=C/c2ccccc2Cl)cc1
inactive: [4] 101 % of control | [6] 93 % of control | [8] 104 % of control

N#Cc1cc(Cl)ccc1Cl
inactive: dose: 100.0 mg/kg/injection, schedule: Q01DX009 (ip), vehicle: gum acacia 100 % of control | dose: 100.0 mg/kg/injection, schedule: Q04DX003 (ip), vehicle: gum acacia 98 % of control | dose: 200.0 mg/kg/injection, schedule: Q01DX009 (ip), vehicle: gum acacia 103 % of control | dose: 200.0 mg/kg/injection, schedule: Q04DX003 (ip), vehicle: gum acacia 95 % of control | dose: 400.0 mg/kg/injection, schedule: Q01DX009 (ip), vehicle: gum acacia 95 % of control | dose: 400.0 mg/kg/injection, schedule: Q04DX003 (ip), vehicle: gum acacia 93 % of control

C1C2OC3CN1CC(O2)O3
inactive: dose: 50.0 mg/kg/injection, schedule: Q01DX009 (ip), vehicle: saline 97 % of control | dose: 100.0 mg/kg/injection, schedule: Q01DX009 (ip), vehicle: saline 97 % of control | dose: 200.0 mg/kg/injection, schedule: Q01DX009 (ip), vehicle: saline 94 % of control

O=C1C(Cl)=C(Nc2ccc(Cl)c(Cl)c2)C(=O)c2ccccc21
inactive: [5] 98 % of control | [7] 92 % of control | [9] 98 % of control

CN(C)c1ccc(N2C(=O)C=CC2=O)cc1
inactive: dose: 6.25 mg/kg/injection, schedule: Q01DX001 (ip), vehicle: saline with Tween-80 104 % of control | dose: 12.5 mg/kg/injection, schedule: Q01DX001 (ip), vehicle: saline with Tween-80 105 % of control

CCC(C)C(CCN1CCCCC1)(CNC(=O)CN(CC)CC)c1cccc2ccccc12 (configuration not stated)
inactive: dose: 100.0 mg/kg/injection, schedule: Q04DX003 (ip), vehicle: saline 103 % of control | dose: 200.0 mg/kg/injection, schedule: Q04DX003 (ip), vehicle: saline 103 % of control

Cc1ccccc1NC(=O)Oc1ccc2ccccc2c1
inactive: [4] 106 % of control | [6] 103 % of control | [8] 106 % of control
